Reference: ChEMBL document CHEMBL1201862, “PubChem BioAssay data set” (2004)
Calls of active or inactive are those of the source.

Assays:
[1] = target: T1, Mannose-6-phosphate isomerase (Homo sapiens, UniProt P34949); assay: inhibitors of human PMI, primary screen, biochemical, fluorescence intensity, coupled assay (AID 1209)
T1 sequence (P34949 whole entry): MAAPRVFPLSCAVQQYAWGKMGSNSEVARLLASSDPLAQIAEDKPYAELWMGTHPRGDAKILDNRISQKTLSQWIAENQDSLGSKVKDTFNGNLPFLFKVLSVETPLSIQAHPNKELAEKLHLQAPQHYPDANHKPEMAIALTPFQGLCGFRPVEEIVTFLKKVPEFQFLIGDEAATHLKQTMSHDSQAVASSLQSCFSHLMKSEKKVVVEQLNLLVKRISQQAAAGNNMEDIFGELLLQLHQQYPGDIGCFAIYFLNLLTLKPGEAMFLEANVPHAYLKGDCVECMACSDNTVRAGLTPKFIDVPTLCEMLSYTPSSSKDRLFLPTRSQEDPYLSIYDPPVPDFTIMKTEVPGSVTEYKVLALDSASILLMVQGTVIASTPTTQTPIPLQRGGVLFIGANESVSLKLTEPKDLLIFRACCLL

[2] = target: DNA dC->dU-editing enzyme APOBEC-3A (Homo sapiens, UniProt P31941); assay: APOBEC3A DNA deaminase inhibitors, dose response, biochemical (AID 504722); assay type: functional
[3] = target: DNA dC->dU-editing enzyme APOBEC-3G (Homo sapiens, UniProt Q9HC16); assay: Dose Response confirmation of small molecule APOBEC3G DNA Deaminase Inhibitors via a fluorescence-based single-stranded DNA deaminase assay. [Related pubchem assays (depositor defined):AID493012, AID493028]; assay type: functional
[4] = target: T1, Mannose-6-phosphate isomerase; assay: human PMI inhibitors, high substrate, primary screen, biochemical, fluorescence intensity, high mannose 6-phosphate (AID 1220)
[5] = target: T2, Hepatocyte nuclear factor 4-alpha (Homo sapiens, UniProt P41235); assay type: functional, cell-based;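 also: biochemical luminescence-based dose-response counterscreen measuring inhibition of HNF4 dimerization, run alongside a screen for blockers of ABHD5–perilipin-5 interaction; split luciferase complementation of HNF4 fusion proteins in cell lysate measuring dimerization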
T2 sequence (P41235 whole entry): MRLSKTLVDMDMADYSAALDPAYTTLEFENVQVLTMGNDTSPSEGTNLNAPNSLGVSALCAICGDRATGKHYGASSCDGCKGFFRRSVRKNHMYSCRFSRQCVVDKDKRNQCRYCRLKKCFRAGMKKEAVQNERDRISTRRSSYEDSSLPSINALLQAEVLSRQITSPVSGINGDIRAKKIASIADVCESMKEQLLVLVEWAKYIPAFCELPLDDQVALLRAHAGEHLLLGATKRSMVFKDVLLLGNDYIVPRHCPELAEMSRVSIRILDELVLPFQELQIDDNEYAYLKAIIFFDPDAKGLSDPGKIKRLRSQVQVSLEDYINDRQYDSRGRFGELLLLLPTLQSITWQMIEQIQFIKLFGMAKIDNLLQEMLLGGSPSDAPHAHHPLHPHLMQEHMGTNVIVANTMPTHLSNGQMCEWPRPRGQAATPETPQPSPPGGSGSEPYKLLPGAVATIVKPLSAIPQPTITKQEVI

BJ [6] = assay: cytotoxicity toward BJ-TERT-LT-ST fibroblasts, dose response, cell-based, RAS-independent, luminescence (AID 1935); assay type: functional; details: Homo sapiens;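 also: BJ fibroblasts immortalized with TERT plus LT and ST oncogenes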
HeLa = assay: HeLa cell cytotoxicity, dose response, cytotoxicity control, 24 h, cherry-picked samples (AID 504726); assay type: functional, cell-based; details: Homo sapiens;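 also: potency for cytotoxicity as loss of luminescence signal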
[7] = cytotoxicity toward DRD oncogenic fibroblasts, dose response, cell-based, non-viral oncogenic, luminescence (AID 1934); assay type: functional; details: Homo sapiens
BJ [8] = assay: cells; assay type: functional, cell-based; details: Homo sapiens
[9] = inhibitors of PGC1a acetylation in cells, dose response, cell-based, cherry-picked samples (AID 720514); assay type: functional;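 also: potency may reflect raised or lowered acetylation signal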
BJ [10] = assay: cytotoxicity toward BJ-TERT fibroblasts, dose response, cell-based, RAS-independent, luminescence (AID 1933); assay type: functional; details: Homo sapiens
[11] = growth suppression of beta-catenin-knockout colon cells, dose response, cell-based, HCT116, human colon tumor (AID 1045); assay type: functional;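 also: HCT116 colon tumor cells with beta catenin knocked out; cells exposed to compound for 60 hours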
Cytochrome P450 2C9 = Cytochrome P450 2C9 (Homo sapiens, UniProt P11712)
[12] = growth suppression of PTEN-null colon cells, dose response, cell-based, HCT116 PTEN knockout (AID 1047); assay type: functional;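 also: HCT116 colon tumor cells with PTEN knocked out; cells exposed to compound for 60 hours before readout; potency for loss of cell viability measured by luminescence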
[13] = HepG2 cell cytotoxicity, dose response, cytotoxicity control for Shn3 inhibitor project, CellTiter-Glo, cherry-picked (AID 624134); assay type: functional, cell-based
[14] = target: Dual specificity tyrosine-phosphorylation-regulated kinase 1A (Rattus norvegicus, UniProt Q63470); assay type: biochemical, Homo sapiens
[15] = target: Cyclin-dependent kinase 5/CDK5 activator 1 (Homo sapiens, UniProt Q00535); assay: CDK5/p35 kinase inhibitors, dose response, biochemical, cherry-picked samples, set 2 (AID 504545)
[16] = control 3'UTR Renilla luciferase suppression, dose response, counter-screen for Shn3 inhibitor project, cell-based, Clone20-Shn3RL, cherry-picked (AID 624133); assay type: functional
[17] = Shn3 3'UTR reporter inhibitors, dose response, cell-based, Clone20 osteoblasts, firefly luciferase, cherry-picked (AID 624132); assay type: functional;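 also: firefly luciferase luminescence from reporter carrying the Shn3 3'UTR in osteoblasts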
[18] = target: T3, Eukaryotic translation initiation factor 2-alpha kinase 3 (Homo sapiens, UniProt Q9NZJ5); assay: Dose response cell-based high-throughput screening assay to measure PERK inhibition. [Related pubchem assays: 1416 ]; assay type: functional
T3 sequence (Q9NZJ5 whole entry): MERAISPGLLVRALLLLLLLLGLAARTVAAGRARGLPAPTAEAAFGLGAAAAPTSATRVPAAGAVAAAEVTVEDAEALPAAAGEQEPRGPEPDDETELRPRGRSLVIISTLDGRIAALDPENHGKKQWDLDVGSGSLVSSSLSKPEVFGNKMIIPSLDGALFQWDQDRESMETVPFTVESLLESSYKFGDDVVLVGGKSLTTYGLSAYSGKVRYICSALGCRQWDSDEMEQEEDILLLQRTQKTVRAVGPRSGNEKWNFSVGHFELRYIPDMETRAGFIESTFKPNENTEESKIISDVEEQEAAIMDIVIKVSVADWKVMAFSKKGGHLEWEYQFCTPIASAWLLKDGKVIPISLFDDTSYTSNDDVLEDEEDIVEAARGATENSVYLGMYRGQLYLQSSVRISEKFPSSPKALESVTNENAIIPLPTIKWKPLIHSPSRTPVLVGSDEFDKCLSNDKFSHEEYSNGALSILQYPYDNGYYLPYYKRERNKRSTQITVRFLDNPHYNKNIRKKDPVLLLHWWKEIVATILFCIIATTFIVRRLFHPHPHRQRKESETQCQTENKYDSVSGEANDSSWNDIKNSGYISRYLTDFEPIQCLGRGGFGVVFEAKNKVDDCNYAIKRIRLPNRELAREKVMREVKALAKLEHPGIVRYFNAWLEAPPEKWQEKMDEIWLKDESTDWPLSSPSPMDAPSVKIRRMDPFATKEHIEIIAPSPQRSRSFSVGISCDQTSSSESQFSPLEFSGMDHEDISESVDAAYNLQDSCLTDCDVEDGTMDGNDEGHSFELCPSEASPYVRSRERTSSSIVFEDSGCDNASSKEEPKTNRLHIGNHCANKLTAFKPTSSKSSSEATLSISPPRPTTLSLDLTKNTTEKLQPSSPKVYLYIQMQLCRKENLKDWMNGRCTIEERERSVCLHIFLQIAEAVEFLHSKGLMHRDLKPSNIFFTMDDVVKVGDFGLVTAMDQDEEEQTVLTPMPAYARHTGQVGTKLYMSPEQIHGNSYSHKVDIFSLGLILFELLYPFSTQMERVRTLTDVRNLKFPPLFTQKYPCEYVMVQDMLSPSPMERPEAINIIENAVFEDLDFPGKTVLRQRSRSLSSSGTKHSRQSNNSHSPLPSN

[19] = target: T3, Eukaryotic translation initiation factor 2-alpha kinase 3; assay: Counterscreen assay for PERK inhibitors: Dose response cell-based high throughput screening assay to measure inhibition of PERK at 6 hours. [Related pubchem assays: 1522, 1416 ]; assay type: functional

Chain of Cytochrome P450 2C9 (P11712 whole entry): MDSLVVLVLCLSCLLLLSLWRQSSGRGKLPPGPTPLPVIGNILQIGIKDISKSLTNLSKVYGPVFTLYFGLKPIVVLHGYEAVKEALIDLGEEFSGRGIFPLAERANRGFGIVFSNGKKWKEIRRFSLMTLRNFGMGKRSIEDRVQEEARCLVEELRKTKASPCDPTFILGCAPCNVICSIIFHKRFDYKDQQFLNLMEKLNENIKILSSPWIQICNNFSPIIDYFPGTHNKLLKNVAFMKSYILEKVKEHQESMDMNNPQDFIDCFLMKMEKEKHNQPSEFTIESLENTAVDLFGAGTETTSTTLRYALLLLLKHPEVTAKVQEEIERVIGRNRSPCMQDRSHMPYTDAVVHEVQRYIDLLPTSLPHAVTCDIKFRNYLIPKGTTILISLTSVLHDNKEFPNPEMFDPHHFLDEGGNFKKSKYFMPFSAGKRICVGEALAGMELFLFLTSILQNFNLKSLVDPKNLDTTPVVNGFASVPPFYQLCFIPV
Chain of DNA dC->dU-editing enzyme APOBEC-3A (P31941 whole entry): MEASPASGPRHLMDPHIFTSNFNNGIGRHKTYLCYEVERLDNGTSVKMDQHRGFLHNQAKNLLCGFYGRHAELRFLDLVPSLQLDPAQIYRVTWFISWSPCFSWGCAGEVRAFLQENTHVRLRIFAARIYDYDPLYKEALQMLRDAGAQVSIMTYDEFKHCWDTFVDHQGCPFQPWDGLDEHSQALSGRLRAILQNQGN
Chain of DNA dC->dU-editing enzyme APOBEC-3G (Q9HC16 whole entry): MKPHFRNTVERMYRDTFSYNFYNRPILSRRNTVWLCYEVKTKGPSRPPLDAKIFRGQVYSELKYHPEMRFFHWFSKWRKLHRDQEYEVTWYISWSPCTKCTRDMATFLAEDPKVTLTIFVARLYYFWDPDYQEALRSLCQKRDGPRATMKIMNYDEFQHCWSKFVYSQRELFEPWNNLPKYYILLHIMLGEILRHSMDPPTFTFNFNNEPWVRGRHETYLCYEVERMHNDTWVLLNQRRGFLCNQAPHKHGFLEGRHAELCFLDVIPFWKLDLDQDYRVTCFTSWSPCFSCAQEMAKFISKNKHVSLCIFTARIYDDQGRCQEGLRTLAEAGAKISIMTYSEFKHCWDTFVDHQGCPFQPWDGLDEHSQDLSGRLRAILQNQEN
Chain of Cyclin-dependent kinase 5/CDK5 activator 1 (Q00535 whole entry): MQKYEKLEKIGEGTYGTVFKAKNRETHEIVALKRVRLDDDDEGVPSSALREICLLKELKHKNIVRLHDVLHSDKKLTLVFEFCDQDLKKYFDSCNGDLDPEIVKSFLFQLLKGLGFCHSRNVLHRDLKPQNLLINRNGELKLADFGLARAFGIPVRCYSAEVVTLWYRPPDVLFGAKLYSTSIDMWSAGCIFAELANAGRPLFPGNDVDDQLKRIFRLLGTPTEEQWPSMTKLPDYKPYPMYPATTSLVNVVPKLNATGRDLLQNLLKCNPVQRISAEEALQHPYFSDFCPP
Chain of Cyclin-dependent kinase 5/CDK5 activator 1 (Q15078 whole entry, further chain): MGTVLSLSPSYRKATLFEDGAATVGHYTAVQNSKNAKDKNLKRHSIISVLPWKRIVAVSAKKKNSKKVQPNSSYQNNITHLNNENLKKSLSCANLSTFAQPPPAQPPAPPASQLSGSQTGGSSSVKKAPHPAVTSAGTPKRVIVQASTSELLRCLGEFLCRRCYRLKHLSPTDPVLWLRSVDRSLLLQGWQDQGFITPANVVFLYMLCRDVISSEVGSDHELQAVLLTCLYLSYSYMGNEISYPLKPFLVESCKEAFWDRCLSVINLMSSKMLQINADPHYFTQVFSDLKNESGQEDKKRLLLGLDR

CC1(C)Cc2c(sc3ncn4c(S)nnc4c23)CO1
IC50 [1]: > 50 µM (not active) | IC50 [2]: > 100 µM (inactive) | IC50 [3]: 3.8 µM (active) | IC50 [4]: > 50 µM (not active)

CCC(=O)Nc1cccc(C(=O)/C=C/c2ccccc2)c1
IC50 [5]: 2.86 µM (active) | EC50 (BJ [6]): 20.9 µM (inconclusive) | AC50 (HeLa): 23.6 µM (active) | EC50 [7]: 11.2 µM (active) | EC50 (BJ [8]): 26 µM (active) | AC50 [9]: 14.2 µM (active) | EC50 (BJ [10]): 9.74 µM (inconclusive) | EC50 [11]: 2.34 µM (active) | AC50 (Cytochrome P450 2C9): inconclusive | EC50 [12]: 2.4 µM (active)

Cc1[nH]nc2c1-c1nc3ccccc3nc1C(C)(C)C2
AC50 [13]: 24.4 µM (active) | AC50 [14]: 2.38 µM (active) | AC50 [15]: 14.7 µM (active) | AC50 [16]: 9.03 µM (active) | AC50 [17]: 4.2 µM (active)

O=C(O)c1ccc(C[S+]([O-])c2cccc(C(F)(F)F)c2)o1 (stereo not drawn)
EC50 [18]: > 55.7 µM (not active) | EC50 [19]: > 55.7 µM (not active)

CCOC(=O)c1c(C)noc1-c1ccc(Br)o1
EC50 [18]: > 55.7 µM (not active) | EC50 [19]: > 55.7 µM (not active)
